Data from patent US20060270727A1, “Small molecule therapeutics and uses therefor” (priority 2005, published 2006).

How the values were obtained:
[1] = system: frataxin mRNA in GM15851 normal lymphoid cell line; test: qRT-PCR of frataxin mRNA, normal cell line; type: cell-based, human
From the text: (§1) GAA Specific Polyamides Up Regulate Frataxin mRNA and Protein. To assess whether polyamides alleviate transcription inhibition caused by expanded GAA repeats in the frataxin gene, quantitative real time/reverse transcriptase PCR (qRT-PCR) was used to monitor frataxin mRNA levels in the GM15850 and GM15851 lymphoid cell lines described above; levels of glyceraldehyde 3-phosphate dehydrogenase (GAPDH) mRNA were used as an internal control for each RNA sample; see Example 8. No differences in GAPDH were found between the two cell lines. […] No changes in frataxin mRNA levels were observed on shorter incubation times.
Cell Culture. […] Cell growth and morphology were monitored by phase contrast microscopy and viability by trypan blue exclusion and an ATP assay (ApoSENSOR™, BioVision). […]
(§2) Real-Time Quantitative RT-PCR. Real-time quantitative RT-PCR (qRT-PCR) analysis was performed essentially as previously described (Chuma, et al., 2003, Hepatology 37:198-207), using the following primers for the frataxin gene: […]
(§3) RNA was standardized by quantification of GAPDH mRNA (Pattyn et al., 2003, Nucleic Acids Res. 31:122-123), and all values are expressed relative to GAPDH. qRT-PCR was performed using iScript One-Step RT-PCR kit with SYBR green (Biorad). Statistical analysis was performed on three independent quantitative RT-PCR experiments for each RNA sample.

[2] = system: GM15851 normal lymphoid cells; test: DNA microarray of global gene expression, normal cells; type: cell-based, human; conditions: for number of genes with affected mRNA levels: P≦0.005
Experimental: Effects of Polyamides on Global Gene Expression. DNA microarray analyses (see Example 10) were performed with RNA isolated from GM15850 FRDA and GM15851 normal lymphoid cells that were either untreated or treated with polyamides FA1 (at 1 and 2 μM) or FA2 (at 2 μM) for 7 days on Affymetrix Human Genome U133 Plus 2.0 GeneChips®. These chips contain […] oligonucleotides representing all or nearly all of the genes in the human genome). Experiments were conducted according to manufacturer guidelines. […] Although more genes were judged affected by FA1 at 1 μM than at 2 μM, this difference is largely due to genes whose mRNA levels change by less than […] in either direction, and thus are not highly significant. At 2 μM FA1, 15 genes were increased in expression by greater than 50% and one gene was decreased by 45%. […] For GM15851 cells, two genes were up regulated by FA1, and no genes were down regulated. (Note that the probability that the genes affected in GM15851 cells would be judged significant by chance at P≦0.005 is 0.8-1.0, based on analysis with BRB ArrayTools). […] Strikingly, binding sites for FA1 (5′-AAGAAGAAG-3′, SEQ ID NO: ______) are present in 18/20 genes whose mRNA levels are increased by 1.2-fold or greater in GM15850 cells, although this sequence would be expected to appear at random only once per 262,000 bp in genomic DNA.
DNA Microarrays. FRDA and control lymphoid cells (i.e., lines GM15850 and GM15851, respectively) were incubated with polyamides FA1 (at 1 or 2 μM) or FA2 (at 2 μM), or in the absence of polyamide, in triplicate for seven days prior to RNA purification and microarray analysis. Affymetrix U133A Plus 2.0 GeneChips® were hybridized in groups of eight for each of the three replicates. Raw GeneChip® data were normalized with RMAExpress (Bolstad et al., 2003, Bioinformatics 19:185-193) and the normalized data was filtered to remove probesets called absent on 24 of 24 chips from class comparisons. The Affymetrix probeset-level data was imported to BRB Arraytools (v3.3.0 Beta 3a) selecting the U133 chips used in the experiment and leaving all filters off. For class comparisons between groups of arrays, unpaired samples were used and the random variance model was selected, with the univariate significance threshold set to 0.005. The restrictions for the univariate test were maintained as the default values of 10 for the maximum number of false discovered genes, 0.1 for the maximum proportion of false discoveries, and a 90% confidence level. Because of poor data correlation in one set of replicates, class comparisons were performed using all chips for the control group versus two of the three replicates for the treatment group (i.e., five groups are the minimum number required for class comparisons).

[3] = system: frataxin mRNA in GM15850 FRDA lymphoid cell line; test: qRT-PCR of frataxin mRNA, FRDA cell line; type: cell-based, human; conditions: for effect on frataxin mRNA levels, in words: GM15850 FRDA cell line, 7 days incubation
From the text: as §1
Cell Culture. Epstein Barr virus transformed lymphoblast cell lines GM15850 from a FRDA patient (alleles with 650 and 1030 GAA repeats in the frataxin gene, from the Coriell Cell Repository, Camden, N.J.), and GM15851 from an unaffected sibling (normal range of repeats), were propagated in RMPI 1640 medium with 2 mM L-glutamine and 15% fetal bovine serum at 37° C. in 5% CO2. Cell growth and morphology were monitored by phase contrast microscopy and viability by trypan blue exclusion and an ATP assay (ApoSENSOR™, BioVision). Polyamides were added directly to the culture medium in PBS. Nuclear localization of the polyamides was verified by deconvolution microscopy, by methods well known in the art (see e.g., Dudouet et al., Chem. Biol., 2003, 10: 859-867).
as §2, §3

[4] = system: mismatch DNA sequence 5′-GGAGGAGGTGGAGGAGGA-3′ from the erbB2 (Her2-neu) promoter; test: DNase I footprinting on mismatch DNA; type: binding, human; conditions: polyamide concentrations up to 100 nM
Experimental: Two additional molecules, FA5 [(ImPyβ)4ImβDp] and FA6 [(ImPyβ)5ImβDp], were synthesized in order to target longer regions of GAA repeats in duplex DNA; i.e., (AAG)5 (SEQ ID NO: ______) and (AAG)6 (SEQ ID NO: ______) respectively. […] As another test for sequence specificity, footprinting experiments with FA1 and FA3 and a radiolabeled DNA fragment containing a mismatch DNA sequence 5′-GGAGGAGGTGGAGGAGGA-3′ (SEQ ID NO: ______) were performed.
The first oligonucleotide shown was radiolabeled as above to generate a PCR product labeled on the GAA strand. A 150 bp PCR product containing a (GGA•TCC)6 mismatch sequence was derived from the erbB2 (Her2-neu) promoter in human genomic DNA with the following oligonucleotides: […]

[5] = system: duplex DNA having GAA repeats ((GAA)33); test: Quantitative DNase I footprinting on extended GAA repeat DNA; type: binding
From the text: The term “mismatch” in the context of polyamides or linkable units refers to replacement of one or more linkable units in a polyamide such that recognition for a specific duplex DNA pair is energetically less favorable (Dervan & Edelson, Id.; Urbach & Dervan, Id). The term “match” in the context of polyamide binding to DNA refers to a linkable unit selected according to the polyamide recognition rules of Urbach & Dervan (Id). or Dervan & Edelson (Id).
where the second oligonucleotide was labeled with γ-^32P ATP and polynucleotide kinase, using standard procedures, to generate a PCR product labeled on the GAA strand. A 204 bp singly end-labeled PCR product was derived from plasmid pMP142 DNA, containing 33 GAA repeats (Ohshima et al., Id.), with following oligonucleotides: […]

Compound	effect on frataxin mRNA levels, in words [1]	transcript levels for frataxin (microarray) ([2]; 2 μM, 7 days)	number of genes with affected mRNA levels ([2]; 7 days)	effect on frataxin mRNA levels, in words [3]	binding to mismatch DNA sequence [4]	genes down regulated [2]	genes up regulated [2]	frataxin mRNA as % of the level in the normal cell line ([3]; GM15850, 2 μM)	range of fold increases of frataxin mRNA in numerous experiments ([3]; GM15850, 2 μM)	increase of frataxin mRNA level ([3]; GM15850, 2 μM, 7 days, relative to GAPDH)	time for frataxin mRNA to decrease to pre-treatment levels after removal of polyamide ([3]; after induction 7 days, transfer to fresh medium lacking polyamide)	effect of higher concentrations or longer incubation on frataxin transcription ([3]; compared with 2 μM, 7-day incubation)	concentration at 50% occupancy of the DNA ([5]; equals target site concentration in the reaction)	affinity for extended GAA repeats ([5]; several molecules bound per DNA molecule)
CN(C)CCCNC(=O)CCNC(=O)c1cc(NC(=O)CCNC(=O)c2nc(NC(=O)c3nc(NC(=O)CCNC(=O)c4cc(NC(=O)c5nccn5C)cn4C)cn3C)cn2C)cn1C [FA2, ImPyβImImβPyβDp]	no change in frataxin mRNA	not changed	one gene	modest increase in frataxin transcription	–	–	–	–	–	–	–	–	–	–
CN(C)CCCNC(=O)CCNC(=O)c1nc(NC(=O)CCNC(=O)c2cc(NC(=O)c3nc(NC(=O)CCNC(=O)c4cc(NC(=O)c5nccn5C)cn4C)cn3C)cn2C)cn1C [FA1, ImPyβImPyβImβDp]	did not change frataxin mRNA levels	–	two genes	increased frataxin mRNA levels	Neither FA1 nor FA3 bound this DNA sequence	no genes	two genes	≤ 45%	2.0 to 3.6 fold	2.5 fold	96 h	Neither higher concentrations of FA1 nor longer incubations times increased frataxin transcription	~1.5 nM	no loss in affinity
